Reference: PubChem BioAssay (NCI)
Several values for one entry are separate records, joined by “and”; a condition that tells them apart may be missing. Identical values can stand only once.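 Five compound concentrations were applied to cells in 96-well plates for 48 hours; endpoints were derived by simple linear interpolation of the resulting dose-response curve. Abbreviation: GI50, concentration required for 50% inhibition of growth. At the TGI there is no net growth.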

Tests used:
Assay in all cases: NCI-60 cell line screen, 48 h
786-0 renal = tested on: 786-0 renal
A498 renal = tested on: A498 renal
CAKI-1 renal = tested on: CAKI-1 renal
DU-145 prostate = tested on: DU-145 prostate
HCT-116 colon = tested on: HCT-116 colon
MALME-3M melanoma = tested on: MALME-3M melanoma
MDA-MB-231 breast = tested on: MDA-MB-231 breast
SK-OV-3 ovarian = tested on: SK-OV-3 ovarian
U251 CNS = tested on: U251 CNS
UACC-62 melanoma = tested on: UACC-62 melanoma

| SMILES | GI50 (786-0 renal) | TGI (786-0 renal) | GI50 (A498 renal) | TGI (A498 renal) | GI50 (CAKI-1 renal) | TGI (CAKI-1 renal) | GI50 (DU-145 prostate) | TGI (DU-145 prostate) | GI50 (HCT-116 colon) | TGI (HCT-116 colon) | GI50 (MALME-3M melanoma) | TGI (MALME-3M melanoma) | GI50 (MDA-MB-231 breast) | TGI (MDA-MB-231 breast) | GI50 (SK-OV-3 ovarian) | TGI (SK-OV-3 ovarian) | GI50 (U251 CNS) | TGI (U251 CNS) | GI50 (UACC-62 melanoma) | TGI (UACC-62 melanoma) |
| --- | --- | --- | --- | --- | --- | --- | --- | --- | --- | --- | --- | --- | --- | --- | --- | --- | --- | --- | --- | --- |
| CC(C)(O)CCc1cccc(C(=O)c2cnn(-c3ccc(F)cc3)c2N)c1 | > 25 µM | > 25 µM | > 18.4 µM | > 25 µM | > 25 µM | > 25 µM | > 25 µM | > 25 µM | > 25000 nM | > 25 µM | > 25 µM | > 25 µM | > 25 µM | > 25 µM | > 25 µM | > 25 µM | > 25 µM | > 25 µM | > 25 µM | > 25 µM |
| O=C(CSC(c1ccccc1)c1ccccc1)N/N=C/c1ccccc1Cl | 19.8 µM | 65.5 µM | 7.2 µM | 59.9 µM | 37.7 µM | > 100 µM | 50.6 µM | > 100 µM | 14000 nM | > 54.6 µM | 6.28 µM | 42.5 µM | 1.46 µM | 11.5 µM | > 100 µM | > 100 µM | 25.8 µM | > 58.4 µM | 14.7 µM | > 63.5 µM |
| O=C(NCCCl)Nc1ccccc1 | – | > 100 µM | – | > 100 µM | – | > 100 µM | – | > 100 µM | – | > 100 µM | – | > 100 µM | – | > 100 µM | – | > 100 µM | – | > 100 µM | – | > 100 µM |
| COc1c(-c2ccc3c(c2)OCO3)oc2cc(O)cc(O)c2c1=O | – | > 100 µM | – | 72.3 µM | – | 86.4 µM | – | > 100 µM | – | > 100 µM | – | – | – | > 100 µM | – | 85.4 µM | – | > 100 µM | – | > 100 µM |
| COc1cc2c3c(n(CCN4CCOCC4)c(=O)c2cc1OC)-c1ccccc1C3=O | 88.9 µM | > 100 µM | 85.7 µM | > 100 µM | 32.9 µM | 72.9 µM | > 100 µM | > 100 µM | 59700 nM | > 100 µM | > 100 µM | > 100 µM | > 100 µM | > 100 µM | 90.4 µM | > 100 µM | 62.3 µM | > 100 µM | 56.8 µM | > 100 µM |
| CC(=O)c1ccc2c3c1[C@H]1O[C@H]1c1cccc(c1-3)[C@@H]1O[C@H]21 | 1.74 µM | 4 µM | 2.74 µM | 7.36 µM | – | 2.67 µM | – | 7.19 µM | – | 3.87 µM | – | 3.07 µM | – | 4.44 µM | – | 16 µM | – | 4.3 µM | – | 4.15 µM |
| O=C1CC(Cc2n[nH]c3c2CCCC3)CC(=O)N1 | – | > 100 µM | – | > 100 µM | – | > 100 µM | – | > 100 µM | – | > 100 µM | – | > 100 µM | – | > 100 µM | – | > 100 µM | – | > 100 µM | – | > 100 µM |
| CNCC(=O)NC(CO)C(=O)NC(CO)C(=O)NC1C(C(N)=O)OC(n2ccc(N)nc2=O)C(O)C1O (stereo not given) | 12.5 µg/mL | > 50 µg/mL | 13 µg/mL | > 50 µg/mL | 15.7 µg/mL | > 50 µg/mL | 13 µg/mL | > 50 µg/mL | 4.68 µg/mL | 40.3 µg/mL | 0.225 µg/mL | 7.58 µg/mL | > 50 µg/mL | > 50 µg/mL | 7.66 µg/mL | 41.7 µg/mL | 10.9 µg/mL | > 50 µg/mL | 2.88 µg/mL | 16.8 µg/mL |
| CN(C)CC1C(=O)O[C@H]2[C@H]1CC/C(COC(=O)NCc1ccc(Cn3c(=O)sn(CCCI)c3=O)cc1)=C\CC[C@@]1(C)O[C@@H]21 (stereo not given in full) | 1.1 µM | 2.43 µM | 7.02 µM | 13.6 µM | 0.886 µM | 1.95 µM | 1.07 µM | 2.16 µM | 793 nM | 1.6 µM | 0.836 µM | 1.69 µM | 0.906 µM | 1.8 µM | 7.96 µM | 14.8 µM | 7.53 µM | 14.3 µM | 1.28 µM | 3.97 µM |
| CC1=NN(c2cccc(Cl)c2)C(=O)/C1=C\C=C\c1ccccc1 | 2.16 µM | 4.65 µM | 17.7 µM | > 100 µM | 1.89 µM | 4.49 µM | 2.91 µM | 12.1 µM | 1560 nM | 3.09 µM | 2.76 µM | 9.19 µM | 2.27 µM | 7.47 µM | 3.21 µM | 9.93 µM | 1.78 µM | 4.42 µM | 1.76 µM | 3.87 µM |
| [Cl][Hg][c]1ccc2ccccc2c1 | 1.76 µM | 3.21 µM | 3.96 µM | 12.4 µM | 3.64 µM | 6.97 µM | 4.97 µM | 15.3 µM | 3180 nM | 7.59 µM | 1.78 µM | 3.4 µM | 1.74 µM | 3.5 µM | 3.87 µM | 9.44 µM | 1.31 µM | 2.68 µM | 1.81 µM | 4.45 µM |
| CC(=O)O[C@@H]1C2=C(C)C3(CC3)[C@@](C)(O)C(=O)C2=C[C@@]1(C)CO | 2.04 µM | 6.1 µM | 1.8 µM | 3.53 µM | 1.5 µM | 13.3 µM | 0.342 µM | 3.14 µM | 424 nM | > 100 µM | 0.893 µM | 2.5 µM | 1.8 µM | 8.92 µM | 1.55 µM | 8.01 µM | 0.396 µM | > 36.1 µM | 1.71 µM | 3.59 µM |
| O=C(NNc1ccccc1)c1ccc(Cl)c(Cl)c1 | – | > 100 µM | – | 59.7 µM | – | > 59.5 µM | – | > 100 µM | – | > 100 µM | – | > 92.5 µM | – | > 100 µM | – | > 80.1 µM | – | > 100 µM | – | > 100 µM |
| CC(C)c1[nH]nc2c(NCc3ccc(-c4ccccn4)cc3)nc(SCCN(C)C)nc12 | 0.0767 µM | 6.06 µM | 0.0563 µM | 0.164 µM | 0.37 µM | 19.4 µM | 0.138 µM | 12.4 µM | 35.7 nM | 10.8 µM | 0.0986 µM | 0.642 µM | 0.0257 µM | 8.3 µM | 0.106 µM | 11.5 µM | 0.0474 µM | 10.7 µM | 0.0427 µM | 0.4 µM |
| CCN(CC)S(=O)(=O)c1cccc(-c2ccc3c(NC(=O)C4CC4)n[nH]c3c2)c1 | 2.5 µM | > 6.25 µM | 1.61 µM | > 6.25 µM | 2.28 µM | > 6.25 µM | 2.26 µM | > 6.25 µM | 1920 nM | > 6.25 µM | 1.46 µM | > 6.25 µM | 2.84 µM | > 6.25 µM | 3.48 µM | > 6.25 µM | 2.1 µM | > 6.25 µM | 2.28 µM | > 6.25 µM |
| NC(Cc1cccnn1)C(=O)O (stereo not given) | – | > 100 µM | – | > 100 µM | – | > 100 µM | – | > 100 µM | – | > 100 µM | – | > 100 µM | – | > 100 µM | – | > 100 µM | – | > 100 µM | – | > 100 µM |
| COC(=O)c1ccc(NC(=O)c2ccc(NC3=C(Cl)C(=O)N(Cc4ccccc4)C3=O)cc2)cc1 | 10.9 µM | 22.9 µM | 28.4 µM | 58.6 µM | 2.49 µM | 6.4 µM | 17.4 µM | 31.2 µM | 3470 nM | 11.8 µM | – | – | 19.7 µM | 34.7 µM | 20.7 µM | 38.3 µM | 9.63 µM | 21.4 µM | 18.7 µM | 37.1 µM |
| COc1ccc(/C=C\c2cc(OC)c(OC)c(OC)c2)cc1OC(=O)CC(N)C(=O)O (stereo not given) | 0.000174 µM | – | – | 0.00888 µM | – | – | – | 0.0187 µM | 0.0407 nM | – | 0.00102 µM | – | 0.00402 µM | 0.00404 µM | – | – | 0.000352 µM | 0.00855 µM and 0.0702 µM | 0.000354 µM | > 100 µM |
| Cc1cc(Cl)nc(N(CCCNc2ccnc3cc(Cl)ccc23)Cc2cccs2)n1 | 1.49 µM | 4.35 µM | 0.714 µM | 6.99 µM | – | – | 2.23 µM | 14.7 µM | 437 nM | 2.64 µM | 1.64 µM | 3.46 µM | 1.24 µM | 3.4 µM | 3.27 µM | 12.6 µM | 2.18 µM | 10.2 µM | 1.7 µM | 4.51 µM |
| C=C(C)C1CCC2=CC(CC3(C)OC3C3=CC(C(=O)OC)=C(C1)O3)OC2=O (stereo not given) | – | > 100 µM | – | > 100 µM | – | > 100 µM | – | > 100 µM | – | > 100 µM | – | > 100 µM | – | > 100 µM | – | – | – | > 100 µM | – | – |
| Cc1cc(-c2nc3n(c2/C=N/N=C(N)N)CCS3)c(C)s1 | 17.1 µM | 30.8 µM | 18.5 µM | 33.6 µM | 8.02 µM | 23.8 µM | 18.2 µM | 34.7 µM | 15400 nM | 28.7 µM | – | – | 13.4 µM | 27.1 µM | 19.8 µM | 36.9 µM | 15.6 µM | 32.1 µM | 12.9 µM | 25.5 µM |
| C=C1C(=O)O[C@H]2[C@H]1CC/C(COC(=O)CCCCCCCC(=O)OC/C1=C/CC[C@@]3(C)O[C@H]3[C@H]3OC(=O)C(=C)[C@@H]3CC1)=C\CC[C@@]1(C)O[C@@H]21 | 1.68 µM | 3.63 µM | 12.3 µM | 28.7 µM | – | – | 2.9 µM | 10.8 µM | – | – | 2.17 µM | 5.3 µM | 1.98 µM | 4.61 µM | 13.1 µM | 34.3 µM | 2.13 µM | 5.37 µM | 2.45 µM | 6.51 µM |
